Test results from PMC12108418, “Broad-Spectrum Gramicidin S Derivatives with Potent Activity Against Multidrug-Resistant Gram-Negative ESKAPE Pathogens” (Antibiotics, 2025).
In brackets after ≈: the same amount, converted by molar mass. Where two headings read alike, the source gives them in different places. Square brackets hold non-standard residues; d marks the D form. Peptide text beside a SMILES is read from it. Orn = NCCC[C@H](N)C(=O)O

Experiments:
Type in all cases: cell-based
[1] = test system: Acinetobacter baumannii (ATCC 19606)
Protocol: (§1) The antibacterial efficacy of peptides was assessed using the broth microdilution method in accordance with Clinical and Laboratory Standards Institute (CLSI) guidelines (M07-A10, 2015 [33]). The minimum inhibitory concentrations (MICs) were determined against Escherichia coli (ATCC 25922), Klebsiella pneumoniae (ATCC 33495), Pseudomonas aeruginosa (ATCC 27853), Acinetobacter baumannii (ATCC 19606), and Staphylococcus aureus (ATCC 29213 and ATCC USA300). Bacterial suspensions were standardised to 5 × 10^4 colony-forming units (CFUs)/well in cation-adjusted Mueller–Hinton broth (CAMHB). Peptides were dissolved in 25% DMSO and serially diluted two-fold across 96-well plates, reaching final concentrations ranging from 256 to 0.125 µg/mL. The wells were inoculated, ensuring a final volume of 100 µL per well, with a DMSO concentration of 1% (v/v) to minimise solvent interference. […] Vancomycin was used as the positive control for S. aureus. Polymyxin B served as the positive control for Gram-negative bacteria. CAMHB with 1% (v/v) DMSO (without peptides) was used as the negative control. All experiments were performed in triplicate (n = 3). Bacterial isolates were stored in tryptone soy broth with 30% glycerol at −80 °C for long-term preservation.

[2] = test system: Klebsiella pneumoniae (ATCC 33495); settings: ATCC 33495
Protocol: as §1

[3] = test system: Pseudomonas aeruginosa (ATCC 27853); settings: ATCC 27853
Protocol: as §1

[4] = test system: Escherichia coli (ATCC 25922)
Protocol: as §1

[5] = broth microdilution in CAMHB, 5 × 10^4 CFU/well, 1% DMSO, 37 °C, 16–20 h, 256 to 0.125 µg/mL, triplicate (n = 3)

SMILES | MIC A. baumannii ATCC 19606 ([1]; ATCC 19606) [µg/mL] | MIC K. pneumonia ATCC 33495 [2] [µg/mL] | MIC P. aeruginosa ATCC 27853 [3] [µg/mL] | MIC E. coli ATCC 25922 ([4]; ATCC 25922) [µg/mL] | MIC E. coli ATCC 25922 [4, 5] [µg/mL] | MIC A. baumannii ATCC 19606 [1, 5] [µg/mL]
CC(C)C[C@@H]1NC(=O)[C@H](CCCN)NC(=O)[C@H](C(C)C)NC(=O)[C@@H]2CCCN2C(=O)[C@@H](Cc2ccccc2)NC(=O)[C@H](CC(C)C)NC(=O)[C@H](CCCN)NC(=O)[C@H](C(C)C)NC(=O)[C@@H]2CCCN2C(=O)[C@@H](Cc2ccccc2)NC1=O [GS, gramicidin S] (cyclo(V[Orn]L[dF]PV[Orn]L[dF]P)) | 8 (≈ 7.01 µM) | 128 (≈ 112 µM) | 128 (≈ 112 µM) | 32 (≈ 28 µM) |  | 
CC(C)C[C@@H]1NC(=O)[C@H](CCCN)NC(=O)[C@H](C(C)C)NC(=O)[C@@H]2CCCN2C(=O)[C@@H](Cc2ccccc2)NC(=O)[C@H](CC(C)C)NC(=O)[C@H](CCCN)NC(=O)[C@H](C(C)C)NC(=O)[C@H](Cc2c[nH]c3ccccc23)NC(=O)[C@@H](Cc2ccccc2)NC1=O [Peptide 2] (cyclo(L[dF]PV[Orn]L[dF]WV[Orn])) | 64 (≈ 52 µM) | >256 | >256 | 256 (≈ 208 µM) |  | 
CC(C)C[C@@H]1NC(=O)[C@H](CCCN)NC(=O)[C@H](C(C)C)NC(=O)[C@@H]2CCCN2C(=O)[C@@H](Cc2ccccc2)NC(=O)[C@H](CC(C)C)NC(=O)[C@H](CCCN)NC(=O)[C@H](C(C)C)NC(=O)[C@H](Cc2c[nH]c3ccccc23)NC(=O)[C@@H](Cc2c[nH]c3ccccc23)NC1=O [Peptide 3] (cyclo(L[dF]PV[Orn]L[dW]WV[Orn])) | 128 (≈ 101 µM) | >256 | >256 |  | > 256 | 

The remaining lines, values ahead:

MIC A. baumannii ATCC 19606 ([1]; ATCC 19606) [µg/mL] | MIC K. pneumonia ATCC 33495 [2] [µg/mL] | MIC P. aeruginosa ATCC 27853 [3] [µg/mL] | MIC E. coli ATCC 25922 ([4]; ATCC 25922) [µg/mL] | MIC E. coli ATCC 25922 [4, 5] [µg/mL] | MIC A. baumannii ATCC 19606 [1, 5] [µg/mL] | SMILES
 | >256 | >256 |  | > 256 | > 256 | CC(C)C[C@@H]1NC(=O)[C@H](CCCN)NC(=O)[C@H](C(C)C)NC(=O)[C@H](Cc2c[nH]c3ccccc23)NC(=O)[C@@H](Cc2ccccc2)NC(=O)[C@H](CC(C)C)NC(=O)[C@H](CCCN)NC(=O)[C@H](C(C)C)NC(=O)[C@H](Cc2c[nH]c3ccccc23)NC(=O)[C@@H](Cc2ccccc2)NC1=O [Peptide 4] (cyclo(L[dF]WV[Orn]L[dF]WV[Orn]))
 | >256 | >256 |  | > 256 | > 256 | CC(C)C[C@@H]1NC(=O)[C@H](CCCN)NC(=O)[C@H](C(C)C)NC(=O)[C@H](Cc2c[nH]c3ccccc23)NC(=O)[C@@H](Cc2c[nH]c3ccccc23)NC(=O)[C@H](CC(C)C)NC(=O)[C@H](CCCN)NC(=O)[C@H](C(C)C)NC(=O)[C@H](Cc2c[nH]c3ccccc23)NC(=O)[C@@H](Cc2ccccc2)NC1=O [Peptide 5] (cyclo(L[dF]WV[Orn]L[dW]WV[Orn]))
8 (≈ 6.45 µM) | 16 (≈ 12.9 µM) | 32 (≈ 25.8 µM) |  | 8 (≈ 6.45 µM) |  | CC(C)C[C@@H]1NC(=O)[C@H](CCCN)NC(=O)[C@H](C(C)C)NC(=O)[C@@H]2CCCN2C(=O)[C@@H](Cc2ccccc2)NC(=O)[C@H](CC(C)C)NC(=O)[C@H](CCCN)NC(=O)[C@H](C(C)C)NC(=O)[C@H](Cc2c[nH]c3ccccc23)NC(=O)[C@@H](CCCNC(=N)N)NC1=O [Peptide 8] (cyclo(L[dF]PV[Orn]L[dR]WV[Orn]))
8 (≈ 6.95 µM) | 16 (≈ 13.9 µM) | 32 (≈ 27.8 µM) | 16 (≈ 13.9 µM) |  |  | CC(C)C[C@@H]1NC(=O)[C@H](CCCN)NC(=O)[C@H](C(C)C)NC(=O)[C@@H]2CCCN2C(=O)[C@@H](Cc2ccccc2)NC(=O)[C@H](CC(C)C)NC(=O)[C@H](CCCN)NC(=O)[C@H](C(C)C)NC(=O)[C@@H]2CCCN2C(=O)[C@@H](CCCNC(=N)N)NC1=O [Peptide 9] (cyclo(L[dF]PV[Orn]L[dR]PV[Orn]))
